Assay results published in patent US10800807B2, “TGR5 modulators and methods of use thereof” (Intercept Pharmaceuticals, Inc., priority 2015, dated 2020).
Where a chain is given by its changes, count along the chain named. Like-named read-outs stand apart in the source and are kept apart here.

Columns and labels:
TGR5 [1] = biological target: T1, TGR5 (Homo sapiens, UniProt Q8TDU6); assay: TGR5 activity: cAMP in hTGR5 CHO-k1 cells; type: cell-based; set-up: expressed in transfected cells; host or cells: CHO-k1; details: for Emax: 0.5 h, read-out: hTGR5 CHO Efficacy; for EC50: cAMP
T1 sequence (Q8TDU6 1-330): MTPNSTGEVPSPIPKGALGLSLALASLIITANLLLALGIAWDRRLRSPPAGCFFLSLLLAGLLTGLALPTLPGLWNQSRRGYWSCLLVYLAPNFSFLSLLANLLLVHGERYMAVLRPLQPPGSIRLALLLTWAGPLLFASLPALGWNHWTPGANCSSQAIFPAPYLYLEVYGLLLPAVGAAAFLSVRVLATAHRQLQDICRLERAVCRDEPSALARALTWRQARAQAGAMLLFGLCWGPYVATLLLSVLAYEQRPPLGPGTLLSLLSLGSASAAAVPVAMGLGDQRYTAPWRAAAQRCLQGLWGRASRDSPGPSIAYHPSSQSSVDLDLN

mTGR5 = biological target: T2, mTGR5 (Mus musculus, UniProt Q80SS6); assay: TGR5 activity: cAMP in mTGR5 CHO-Pi10 clone 4 cells; type: cell-based; details: for Emax: 0.5 h, read-out: (mTGR5 CHO) Efficacy
T2 construct: expressed in transfected cells; host or cells: CHO-Pi10 clone 4
T2 sequence (Q80SS6 1-329): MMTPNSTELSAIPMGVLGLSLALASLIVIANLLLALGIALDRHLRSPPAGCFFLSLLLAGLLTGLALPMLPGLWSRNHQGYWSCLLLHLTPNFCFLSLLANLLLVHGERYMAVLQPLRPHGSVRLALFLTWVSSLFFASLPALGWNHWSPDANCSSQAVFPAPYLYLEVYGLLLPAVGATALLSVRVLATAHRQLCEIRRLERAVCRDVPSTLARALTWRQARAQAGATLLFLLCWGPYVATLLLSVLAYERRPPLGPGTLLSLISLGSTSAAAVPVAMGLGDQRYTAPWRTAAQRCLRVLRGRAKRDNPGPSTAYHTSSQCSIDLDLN

[2] = biological target: T3, mouse glutathione transferase-tagged FXR-LBD (Mus musculus, UniProt Q60641); assay: FXR AlphaScreen coactivator recruitment assay (mouse); type: biochemical; details: for EC50: read-out: (mFXR) EC50; for Emax: read-out: (mFXR) Efficacy
T3 construct: mouse glutathione transferase-tagged FXR-LBD (generated in-house); made in house
T3 sequence (Q60641 264-488 limits assumed): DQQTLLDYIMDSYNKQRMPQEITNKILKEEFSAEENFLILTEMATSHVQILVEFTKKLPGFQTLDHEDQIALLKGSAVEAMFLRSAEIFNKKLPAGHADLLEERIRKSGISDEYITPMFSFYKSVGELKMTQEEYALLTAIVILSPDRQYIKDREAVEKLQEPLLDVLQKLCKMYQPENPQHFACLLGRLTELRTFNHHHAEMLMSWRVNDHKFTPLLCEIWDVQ
Experimental: (§1) Activation of the FXR receptor was determined using a recruitment coactivator assay, namely AlphaScreen technology. The assays were performed using human glutathione transferase-tagged FXR-LBD (Life Technologies, USA) and mouse glutathione transferase-tagged FXR-LBD (generated in-house). Briefly, assays were conducted in white, low-volume, 384-well OptiPlate using a final volume of 25 μL containing 10 nM glutathione transferase-tagged FXR-LBD protein and 30 nM biotinylated Src-1 peptide. The stimulation was carried out with different BA concentrations for 30 minutes at 25° C. […] Dose-response curves were performed in triplicate and Z′ factor was used to validate the robustness of the assay.

[3] = biological target: T4, human glutathione transferase-tagged FXR-LBD (Homo sapiens, UniProt Q96RI1); assay: FXR AlphaScreen coactivator recruitment assay (human); type: biochemical; set-up: Emax: dose or concentration left out as unconfirmed; details: for EC50: human FXR-LBD, AlphaScreen, read-out: hFXR EC50; for Emax: read-out: hFXR Efficacy;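 for hFXR Efficacy: CDCA at 50 µM taken as 100%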
T4 construct: human glutathione transferase-tagged FXR-LBD (Life Technologies, USA); purchased Life Technologies, USA
T4 sequence (Q96RI1 262-486 limits assumed): T3 sequence (Q60641 264-488 limits assumed) with D7H, Y8F, S46N, I50V, A95S, A98S, K107N, V125I, M174I, Y175H
Experimental: as §1

TGR5 [4] = biological target: T1, TGR5; assay: TGR5 activity: intracellular cAMP levels, NCI-H716 cells (HTR-FRET); type: cell-based; set-up: endogenous in cells; host or cells: NCI-H716; details: for Emax: read-out: TGR5 (NCI-H716) Efficacy; for EC50: cAMP
Experimental: Activation of TGR5 was assessed by measuring the level of cAMP using an HTR-FRET assay. Thus, NCI-H716 cells were cultured on 96-well plates coated with Matrigel (Corning, USA) (0.75 mg/ml) in DMEM supplemented with 10% FCS, 100 units/ml penicillin, and 100 μg/ml streptomycin sulphate. […] The level of intracellular cAMP was determined with Lance kit. Z′ factor was used to validate assays.

[5] = hTGR5 CHO cells, Ref. LCA 100% at 10 μM
[6] = mTGR5 CHO cells, value in parentheses
[7] = mouse FXR-LBD, value in parentheses
[8] = 1 h, NCI-H716 cells, Ref. LCA 100% at 10 μM

Row | SMILES | Emax (TGR5 [1]; [5]) | EC50 (TGR5 [1]; hTGR5 CHO cells) | Emax (mTGR5; [6]) | EC50 (mTGR5; [6]) | EC50 [2, 7] | Emax [2, 7] | EC50 [3] | Emax [3] | Emax (TGR5 [4]; [8]) | EC50 (TGR5 [4]; NCI-H716 cells) | Emax (TGR5 [1]; CHO) | Emax (mTGR5; CHO) | Emax [2] | Emax (TGR5 [4]; NCI-H716, 1 h)
1 | CC[C@H]1[C@@H](O)[C@@H]2[C@H](C[C@H](O)[C@]3(C)[C@@H]([C@H](C)C[C@H](O)C(=O)O)CC[C@@H]23)[C@@]2(C)CC[C@@H](O)C[C@@H]12 [Compound 1, 3α,7α,12α,23(S)-tetrahydroxy-6α-ethyl-5β-cholan-24-oic acid] | 103 ± 1% | 3500 ± 1500 nM | 115% | 700 nM | 146 µM | 9% | 32 ± 8 µM | 52% | 40% | 19 µM |  |  |  | 
2 | CC[C@H]1[C@@H](O)[C@@H]2[C@H](C[C@H](O)[C@]3(C)[C@@H]([C@H](C)C[C@@H](O)C(=O)O)CC[C@@H]23)[C@@]2(C)CC[C@@H](O)C[C@@H]12 [Compound 2, 3α,7α,12α,23(R)-tetrahydroxy-6α-ethyl-5β-cholan-24-oic acid] | 47.5 ± 2.5% | 17000 ± 2000 nM | 93.5% | 1500 nM | 84 µM | 61% | 20 ± 9 µM | 200% | 55% | 12 µM |  |  |  | 
3 | CC[C@H]1[C@@H](O)C2C3CC[C@H]([C@H](C)C[C@H](CO)C(=O)O)[C@@]3(C)[C@@H](O)CC2[C@@]2(C)CC[C@@H](O)C[C@@H]12 (stereo partly drawn) [Compound 5, 3α,7α,12α-Trihydroxy-6α-ethyl-23(B)-hydroxymethyl-5β-cholan-24-oic acid] |  | 21000 nM |  | 3400 nM |  |  | 20 µM | 37% |  |  | 43.6% | 84.6% |  | 
4 | CC[C@H]1[C@@H](O)[C@@H]2[C@H](C[C@H](O)[C@]3(C)[C@@H]([C@H](C)C[C@@H](CF)C(=O)O)CC[C@@H]23)[C@@]2(C)CC[C@@H](O)C[C@@H]12 [Compound 6, 3α,7α,12α-Trihydroxy-6α-ethyl-23(A)-fluoromethyl-fluoromethyl-5β-cholan-24-oic acid] |  | 29500 nM |  | 3800 nM |  |  | > 100 µM |  |  |  | 28% | 81% |  | 
5 | CC[C@H]1[C@@H](O)[C@@H]2[C@H](C[C@H](O)[C@]3(C)[C@@H]([C@H](C)C[C@H](CF)C(=O)O)CC[C@@H]23)[C@@]2(C)CC[C@@H](O)C[C@@H]12 [Compound 7, 3α,7α,12α-Trihydroxy-6α-ethyl-23(A)-fluoromethyl-fluoromethyl-5β-cholan-24-oic acid] | 27% | 7900 nM | 119% | 2000 nM |  |  | 13 µM | 83% |  |  |  |  |  | 
6 | CC[C@@H]1C2C[C@H](O)CC[C@]2(C)C2CC[C@@]3(C)C(CC[C@@H]3[C@H](C)Cc3nn[nH]n3)C2[C@@H]1O (stereo partly drawn) [Compound 13] | 102 ± 3% | 1000 ± 100 nM | 90% | 2300 nM | 1.4 µM | 208% | 0.43 µM | 138% | 84 ± 14% | 6.4 ± 1.1 µM |  |  |  | 
7 | CC[C@H]1[C@@H](O)C2C3CC[C@H]([C@H](C)CCc4noc(=O)[nH]4)[C@@]3(C)CCC2[C@@]2(C)CC[C@@H](O)C[C@@H]12 (stereo partly drawn) [Compound 16, 3α,7α-Dihydroxy-6α-ethyl-24-nor-5β-23([1,2,4]-oxadiazole-3-one-5-yl)-cholane] | 99 ± 4% | 1200 ± 100 nM | 99% | 440 nM | 6.6 µM | 204% | 0.15 ± 0.05 µM | 165 ± 19% | 116 ± 9% | 3 ± 0.3 µM |  |  |  | 
8 | CC[C@H]1[C@@H](O)[C@@H]2[C@H](CC[C@]3(C)[C@@H]([C@H](C)CCc4nc(=O)o[nH]4)[C@@H](O)C[C@@H]23)[C@@]2(C)CC[C@@H](O)C[C@@H]12 [Compound 18] | 104 ± 1% | 110 ± 30 nM | 101% | 370 nM | 2.3 µM | 150% | 0.55 ± 0.03 µM | 132 ± 8% | 115 ± 4% | 1.8 ± 0.2 µM |  |  |  | 
9 | CC[C@H]1[C@@H](O)C2C3CC[C@H]([C@H](C)CC(=O)NO)[C@@]3(C)CCC2[C@@]2(C)CC[C@@H](O)C[C@@H]12 (stereo partly drawn) [Compound 20] | 109 ± 5% | 300 ± 140 nM | 101% | 500 nM | 16 µM | 85% | 8.7 ± 0.04 µM | 122 ± 3% | 148 ± 1% | 0.7 ± 0.1 µM |  |  |  | 
10 | CC[C@H]1[C@@H](O)C2C3CC[C@H]([C@H](C)CCc4nnc(NS(C)(=O)=O)o4)[C@@]3(C)CCC2[C@@]2(C)CC[C@@H](O)C[C@@H]12 (stereo partly drawn) [Compound 23, 2-(3α,7α-Dihydroxy-6α-ethyl-5β-cholan-24-nor-23-cholanyl)-5-methylsulfonamido-1,3,4-oxadiazole] |  | 1300 ± 100 nM |  | 1400 nM | 0.33 µM |  | 0.1 ± 0.02 µM | 175 ± 22% |  | 12.5 ± 1.5 µM | 111 ± 2% | 110% | 342% | 75 ± 1%
